From patent US20060089375A1, “Pyrazolo[3,4-b] pyridine compounds, and their use as phosphodiesterase inhibitors” (priority 2002, published 2006) come the findings set out here.

Structures are written as SMILES.

T1 sequence (Q07343 1-564 isoform Q07343-2): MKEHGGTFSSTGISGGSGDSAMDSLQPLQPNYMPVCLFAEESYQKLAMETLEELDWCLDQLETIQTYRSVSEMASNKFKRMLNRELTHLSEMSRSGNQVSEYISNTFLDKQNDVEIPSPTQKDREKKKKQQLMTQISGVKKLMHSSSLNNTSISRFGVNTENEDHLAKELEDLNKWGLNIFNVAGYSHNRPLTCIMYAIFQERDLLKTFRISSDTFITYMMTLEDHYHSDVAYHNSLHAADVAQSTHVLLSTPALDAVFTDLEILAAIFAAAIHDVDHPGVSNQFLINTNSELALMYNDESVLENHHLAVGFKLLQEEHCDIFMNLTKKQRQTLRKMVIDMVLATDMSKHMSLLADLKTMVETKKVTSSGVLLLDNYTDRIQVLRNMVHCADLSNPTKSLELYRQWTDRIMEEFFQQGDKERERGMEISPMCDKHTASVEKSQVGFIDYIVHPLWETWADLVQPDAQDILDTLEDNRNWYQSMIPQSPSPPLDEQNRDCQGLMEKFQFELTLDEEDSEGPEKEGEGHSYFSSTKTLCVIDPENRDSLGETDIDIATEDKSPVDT

The assay concerns the target T1, PDE4B (human recombinant) (Homo sapiens, UniProt Q07343).
T1 construct: made in house
Briefly: Inhibition of PDE4B activity: radioactive SPA or IMAP Fluorescence Polarisation (FP) assay. The note with it: PDE4B inhibitory activity, one reading or average of ca. 2-6 readings, read-out: PDE4B pIC50 (± about 0.5) (converted). Format: biochemical. The source says:
Human recombinant PDE4B, in particular the 2B splice variant thereof (HSPDE4B2B), is disclosed in WO 94/20079 and also M. M. McLaughlin et al., “A low Km, rolipram-sensitive, cAMP-specific phosphodiesterase from human brain: cloning and expression of cDNA, biochemical characterisation of recombinant protein, and tissue distribution of mRNA”, J. Biol. Chem., 1993, 268, 6470-6476. For example, in Example 1 of WO 94/20079, human recombinant PDE4B is described as being expressed in the PDE-deficient yeast Saccharomyces cerevisiae strain GL62, e.g. after induction by addition of 150 uM CuSO4, and 100,000×g supernatant fractions of yeast cell lysates are described for use in the harvesting of PDE4B enzyme.
The ability of compounds to inhibit catalytic activity at PDE4B or 4D (human recombinant), PDE3 (from bovine aorta), PDE5 (human recombinant) or PDE6 (from bovine retina) was determined by Scintillation Proximity Assay (SPA) in 96-well format. Test compounds (preferably as a solution in DMSO, e.g. 0.5 to 1 microlitre (ul) volume) were preincubated at ambient temperature (room temperature, e.g. 19-23° C.) in Wallac Isoplates (code 1450-514) with PDE enzyme in 50 mM Tris-HCl buffer pH 7.5, 8.3 mM MgCl2, 1.7 mM EGTA, 0.05% (w/v) bovine serum albumin for 10-30 minutes (usually 30 minutes). The enzyme concentration was adjusted so that no more than 20% hydrolysis of the substrate defined below occurred in control wells without compound, during the incubation. For the PDE3, PDE4B and PDE4D assays, [5′,8-^3H]Adenosine 3′,5′-cyclic phosphate (Amersham Pharmacia Biotech, code TRK.559; or Amersham Biosciences UK Ltd, Pollards Wood, Chalfont St Giles, Buckinghamshire HP8 4SP, UK) was added to give 0.05 uCi per well and ˜10 nM final concentration. For the PDE5 and PDE6 assays, [8-^3H]Guanosine 3′,5′-cyclic phosphate (Amersham Pharmacia Biotech, code TRK.392) was added to give 0.05 uCi per well and ˜36 nM final concentration. Plates, e.g. containing approx. 100 ul volume of assay mixture, were mixed on an orbital shaker for 5 minutes and incubated at ambient temperature for 1 hour. Phosphodiesterase SPA beads (Amersham Pharmacia Biotech, code RPNQ 0150) were added ([…] per well) to terminate the assay. Plates were sealed and shaken and allowed to stand at ambient temperature for 35 minutes to 1 hour (preferably 35 minutes) to allow the beads to settle. Bound radioactive product was measured using a WALLAC TRILUX 1450 Microbeta scintillation counter. For inhibition curves, 10 concentrations (1.5 nM-30 uM) of each compound were assayed. Curves were analysed using ActivityBase and XLfit (ID. Business Solutions Limited, 2 Ocean Court, Surrey Research Park, Guildford, Surrey GU2 7QB, United Kindgom) Results were expressed as pIC50 values.
The ability of compounds to inhibit catalytic activity at PDE4B (human recombinant) or PDE4D (human recombinant) was determined by IMAP Fluorescence Polarisation ([…]) assay (IMAP Explorer kit, available from Molecular Devices Corporation, Sunnydale, Calif., USA; Molecular Devices code: R^8062) in 384-well format. The IMAP FP assay is able to measure PDE activity in an homogenous, non-radioactive assay format. The FP assay uses the ability of immobilised trivalent metal cations, coated onto nanoparticles (tiny beads), to bind the phosphate group of Fl-AMP that is produced on the hydrolysis of fluorescein-labelled (Fl) cyclic adenosine mono-phosphate (Fl-cAMP) to the non-cyclic Fl-AMP form. […] Binding of Fl-AMP product to the beads (coated with the immobilised trivalent cations) slows the rotation of the bound Fl-AMP and leads to an increase in the fluorescence polarisation ratio of parallel to perpendicular light. Inhibition of the PDE reduces/inhibits this signal increase. […]
On to `CCn1ncc2c(NC3CCOCC3)c(C(=O)NCc3nccs3)cnc21` [Example 109, 1-Ethyl-4-(tetrahydro-2H-pyran-4-ylamino)-N-(1,3-thiazol-2-ylmethyl)-1H-pyrazolo[3,4-b]pyridine-5-carboxamide], for which the IC50 is 12.6 to 100 nM.
On to `CCn1ncc2c(NC3CCOCC3)c(C(=O)NCc3ccc(CC(C)C)cc3)cnc21` [Example 645, 1-Ethyl-N-{[4-(2-methylpropyl)phenyl]methyl}-4-(tetrahydro-2H-pyran-4-ylamino)-1H-pyrazolo[3,4-b]pyridine-5-carboxamide], for which the IC50 was 0.1 to 6.31 nM.
Then `CCn1ncc2c(NC3CCC(=O)CC3)c(C(=O)NCc3ccccc3)cnc21` [Example 201, N-Benzyl-1-ethyl-4-[(4-oxocyclohexyl)amino]-1H-pyrazolo[3,4-b]pyridine-5-carboxamide], with 0.1 to 6.31 nM; and `CCOC(=O)c1cnc2c(cnn2CC)c1NC1CCCC1` [Example 1, Ethyl 4-(cyolopentylamino)-1-ethyl-1H-pyrazolo[3,4-b]pyridine-5-carboxylate], with 12.6 to 100 nM; and `CCn1ncc2c(NC3CCC(=O)CC3)c(C(=O)NCc3ccc(OC)cc3)cnc21` [Example 263], with 0.1 to 6.31 nM.
Then `CCn1ncc2c(NC3CCC(=O)CC3)c(C(=O)NCc3ccc(N(C)C)cc3)cnc21` [Example 265, N-{[4-(Dimethylamino)phenyl]methyl}-1-ethyl-4-[(4-oxocyclohexyl)amino]-1H-pyrazolo[3,4-b]pyridine-5-carboxamide], with 0.1 to 6.31 nM; and `CCn1ncc2c(NC3CCC(=O)CC3)c(C(=O)NCc3ccc(OC(F)F)cc3)cnc21` [Example 266, N-({4-[(Difluoromethyl)oxy]phenyl}methyl)-1-ethyl-4-[(4-oxocyclohexyl)amino]-1H-pyrazolo[3,4-b]pyridine-5-carboxamide], with 0.1 to 6.31 nM.
To `CCc1cc(CC)cc(CNC(=O)c2cnc3c(cnn3CC)c2NC2CCOCC2)c1` [Example 575, N-[(3,5-Diethylphenyl)methyl]-1-ethyl-4-(tetrahydro-2H-pyran-4-ylamino)-1H-pyrazolo[3,4-b]pyridine-5-carboxamide] belongs 0.1 to 6.31 nM; to `CCn1ncc2c(NC3CCOCC3)c(C(=O)NCc3ccccc3OC(F)F)cnc21` [Example 495, N-({2-[(Difluoromethyl)oxy]phenyl}methyl)-1-ethyl-4-(tetrahydro-2H-pyran-4-ylamino)-1H-pyrazolo[3,4-b]pyridine-5-carboxamide], 0.1 to 6.31 nM.
As to `CCn1ncc2c(NC3CCOCC3)c(C(=O)NCc3c(CO)ccc(Cl)c3Cl)cnc21` [Example 643, N-{[2,3-Dichloro-6-(hydroxymethyl)phenyl]methyl}-1-ethyl-4-(tetrahydro-2H-pyran-4-ylamino)-1H-pyrazolo[3,4-b]pyridine-5-carboxamide], the IC50 is 0.1 to 6.31 nM.
To `CCc1ccc(CNC(=O)c2cnc3c(cnn3CC)c2NC2CCOCC2)cc1` [Example 636, 1-Ethyl-N-[(4-ethylphenyl)methyl]-4-(tetrahydro-2H-pyran-4-ylamino)-1H-pyrazolo[3,4-b]pyridine-5-carboxamide] belongs 0.1 to 6.31 nM; to `CCn1ncc2c(NC3CCOCC3)c(C(=O)NCc3cc(Cl)cc(Cl)c3)cnc21` [Example 581, N-[(3,5-Dichlorophenyl)methyl]-1-ethyl-4-(tetrahydro-2H-pyran-4-ylamino)-1H-pyrazolo[3,4-b]pyridine-5-carboxamide], 0.1 to 6.31 nM; to `CCn1ncc2c(NC3CCOCC3)c(C(=O)NC3Cc4ccccc4C3)cnc21` [Example 165, N-(2,3-Dihydro-1H-inden-2-yl)-1-ethyl-4-(tetrahydro-2H-pyran-4-ylamino)-1H-pyrazolo[3,4-b]pyridine-5-carboxamide], 0.1 to 6.31 nM.
As to `CCn1ncc2c(NC3CCOCC3)c(C(=O)NCc3ccc(S(C)(=O)=O)cc3)cnc21` [Example 100, 1-Ethyl-N-[4-(methylsulfonyl)benzyl]-4-(tetrahydro-2H-pyran-4-ylamino)-1H-pyrazolo[3,4-b]pyridine-5-carboxamide], the IC50 was 0.1 to 6.31 nM.
To `CCn1ncc2c(NC3CCCCC3)c(C(=O)NCc3ccncc3)cnc21` [Example 32, 4-(Cyolohexylamino)-1-ethyl-N-(pyridin-4-ylmethyl)-1H-pyrazolo[3,4-b]pyridine-5-carboxamide] belongs 20 nM; to `CCn1ncc2c(NC3CCN(C(C)=O)CC3)c(C(=O)NCc3ccccc3)cnc21` [Example 41, 4-[(1-Acetylpiperidin-4-yl)amino]-N-benzyl-1-ethyl-1H-pyrazolo[3,4-b]pyridine-5-carboxamide], 12.6 to 100 nM.
With `CCn1ncc2c(NC3CCOCC3)c(C(=O)NCc3cccc(OC(F)F)c3)cnc21` [Example 498, N-({3-[(Difluoromethyl)oxy]phenyl}methyl)-1-ethyl-4-(tetrahydro-2H-pyran-4-ylamino)-1H-pyrazolo[3,4-b]pyridine-5-carboxamide], the IC50 was 0.1 to 6.31 nM.
Take `CCOC(=O)c1cnc2c(cnn2CC)c1NC1CCCCC1` [Example 2, Ethyl 4-(cyclohexylamino)-1-ethyl-1H-pyrazolo[3,4-b]pyridine-5-carboxylate]: the IC50 was 10 nM.
As for `CCn1ncc2c(NC3CCC(=O)CC3)c(C(=O)NCc3ccc(Cl)cc3C)cnc21` [Example 679, N-[(4-Chloro-2-methylphenyl)methyl]-1-ethyl-4-[(4-oxocyclohexyl)amino]-1H-pyrazolo[3,4-b]pyridine-5-carboxamide], the IC50 was 0.1 to 6.31 nM.
To `CCOC(=O)c1cnc2c(cnn2C)c1NC1CCCC1` [Example 6] belongs 251 nM.
With `CCn1ncc2c(NC3CCC(=NO)CC3)c(C(=O)NCc3ccc(C(F)(F)F)cc3)cnc21` (centres unmarked) [Example 686, 1-Ethyl-4-{[4-(hydroxyimino)cyclohexyl]amino}-N-{[4-(trifluoromethyl)phenyl]methyl}-1H-pyrazolo[3,4-b]pyridine-5-carboxamide], the IC50 is 0.1 to 6.31 nM.
`CCn1ncc2c(NC3CCOCC3)c(C(=O)NCc3ccc(Br)cc3)cnc21` [Example 628, N-[(4-Bromophenyl)methyl]-1-ethyl-4-(tetrahydro-2H-pyran-4-ylamino)-1H-pyrazolo[3,4-b]pyridine-5-carboxamide]: the IC50 was 0.1 to 6.31 nM.
For `CCn1ncc2c(NC3CCOCC3)c(C(N)=O)cnc21` [Example 36, 1-Ethyl-4-(tetrahydro-2H-pyran-4-ylamino)-1H-pyrazolo[3,4-b]pyridine-5-carboxamide], the IC50 is 12.6 to 100 nM.
To `CCn1ncc2c(NC3CCOCC3)c(C(=O)NCc3cc(C)cc(C)c3)cnc21` [Example 624, N-[(3,5-Dimethylphenyl)methyl]-1-ethyl-4-(tetrahydro-2H-pyran-4-ylamino)-1H-pyrazolo[3,4-b]pyridine-5-carboxamide] belongs 0.1 to 6.31 nM; to `CCn1ncc2c(NC3CCC(=NO)CC3)c(C(=O)NCc3cccc(Cl)c3Cl)cnc21` (centres unmarked) [Example 682, N-[(2,3-Dichlorophenyl)methyl]-1-ethyl-4-{[4-(hydroxyimino)cyclohexyl]amino}-1H-pyrazolo[3,4-b]pyridine-5-carboxamide], 0.1 to 6.31 nM; to `CCn1ncc2c(NC3CCCC3)c(C(=O)Nc3ccc(F)cc3)cnc21` [Example 47, 4-(Cyclopentylamino)-1-ethyl-N-(4-fluorophenyl)-1H-pyrazolo[3,4-b]pyridine-5-carboxamide], 12.6 to 100 nM.
